According to patent US12156876B2, “Formulations of influenza therapeutics” (priority 2018, dated 2024):

Key:
[1] = tested on: influenza; assay: anti-influenza potency; assay type: cell-based
[2] = BALB/C, mouse, in vivo

## O=C(O)C1C2CCC(CC2)C1n1cc(F)c2cnc(-c3c[nH]c4ncc(Cl)cc34)nc21 (centres unmarked) [Compound 1, 3-(2-(5-chloro-1H-pyrrolo[2,3-b]pyridin-3-yl)-5-fluoro-7H-pyrrolo[2,3-d]pyrimidin-7-yl)bicyclo[2.2.2]octane-2-carboxylic acid]
[1]
  EC50: 0.1 to 3 nM
[2]
  drug level excess of the therapeutic dose (anti-influenza potency EC50): at least 100 fold
